From patent publication US9586951B2 (FUJIFILM Corporation, priority 2013, dated 2017) come the findings set out here.

One experiment addresses T1, ATM (Homo sapiens, UniProt Q13315).
T1 construct: detecting phosphorylation of Chk2 in a human non-small cell lung cancer cell line NCI-H460 (ATCC company); host or cells: NCI-H460 human non-small cell lung cancer cells
Nature of the experiment: ATM inhibition test (phosphorylation of Chk2 generated by ionizing radiation, AlphaScreen SureFire). Type of experiment: cell-based. The settings on record: phosphorylated Chk2 in NCI-H460 cells, ionizing radiation 8Gy, 1 hour after test compound treatment; read-out: ATM inhibitory activity. The gist of the method:
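Human NCI-H460 lung cancer cells were treated with compound for 1 h, then irradiated at 8Gy and incubated 1 h at 37° C. Phospho-Chk2 was quantified by AlphaScreen SureFire; inhibition % was normalised between irradiated untreated and non-irradiated untreated wells.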
(Alpha assays give light when donor and acceptor beads are brought close together.)

In experiment [1] the test system is human non-small cell lung cancer cell line NCI-H460. Nature of the experiment: Cell proliferation inhibition test by sensitivity-enhancing to ionizing radiation (Cell Titer Glo). In kind it is cell-based. The settings on record: concentration in which SER became 2, NCI-H460 cells, ionizing radiation 2 Gy, cultured 120 hour. Summed up:
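Radiosensitisation measured as SER, a ratio of Cell Titer Glo luminescence in irradiated vs unirradiated plates relative to DMSO; SER2, the concentration yielding SER 2, came from sigmoidal regression. Compound (0.1% DMSO) was given 24 h post-seeding, 2 Gy applied 30 min later, then 120 hour culture at 37° C.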
For orientation: ATP-based viability assays read luminescence as a measure of living cells.

Each structure is given as a SMILES string.

T1 sequence (Q13315 whole entry): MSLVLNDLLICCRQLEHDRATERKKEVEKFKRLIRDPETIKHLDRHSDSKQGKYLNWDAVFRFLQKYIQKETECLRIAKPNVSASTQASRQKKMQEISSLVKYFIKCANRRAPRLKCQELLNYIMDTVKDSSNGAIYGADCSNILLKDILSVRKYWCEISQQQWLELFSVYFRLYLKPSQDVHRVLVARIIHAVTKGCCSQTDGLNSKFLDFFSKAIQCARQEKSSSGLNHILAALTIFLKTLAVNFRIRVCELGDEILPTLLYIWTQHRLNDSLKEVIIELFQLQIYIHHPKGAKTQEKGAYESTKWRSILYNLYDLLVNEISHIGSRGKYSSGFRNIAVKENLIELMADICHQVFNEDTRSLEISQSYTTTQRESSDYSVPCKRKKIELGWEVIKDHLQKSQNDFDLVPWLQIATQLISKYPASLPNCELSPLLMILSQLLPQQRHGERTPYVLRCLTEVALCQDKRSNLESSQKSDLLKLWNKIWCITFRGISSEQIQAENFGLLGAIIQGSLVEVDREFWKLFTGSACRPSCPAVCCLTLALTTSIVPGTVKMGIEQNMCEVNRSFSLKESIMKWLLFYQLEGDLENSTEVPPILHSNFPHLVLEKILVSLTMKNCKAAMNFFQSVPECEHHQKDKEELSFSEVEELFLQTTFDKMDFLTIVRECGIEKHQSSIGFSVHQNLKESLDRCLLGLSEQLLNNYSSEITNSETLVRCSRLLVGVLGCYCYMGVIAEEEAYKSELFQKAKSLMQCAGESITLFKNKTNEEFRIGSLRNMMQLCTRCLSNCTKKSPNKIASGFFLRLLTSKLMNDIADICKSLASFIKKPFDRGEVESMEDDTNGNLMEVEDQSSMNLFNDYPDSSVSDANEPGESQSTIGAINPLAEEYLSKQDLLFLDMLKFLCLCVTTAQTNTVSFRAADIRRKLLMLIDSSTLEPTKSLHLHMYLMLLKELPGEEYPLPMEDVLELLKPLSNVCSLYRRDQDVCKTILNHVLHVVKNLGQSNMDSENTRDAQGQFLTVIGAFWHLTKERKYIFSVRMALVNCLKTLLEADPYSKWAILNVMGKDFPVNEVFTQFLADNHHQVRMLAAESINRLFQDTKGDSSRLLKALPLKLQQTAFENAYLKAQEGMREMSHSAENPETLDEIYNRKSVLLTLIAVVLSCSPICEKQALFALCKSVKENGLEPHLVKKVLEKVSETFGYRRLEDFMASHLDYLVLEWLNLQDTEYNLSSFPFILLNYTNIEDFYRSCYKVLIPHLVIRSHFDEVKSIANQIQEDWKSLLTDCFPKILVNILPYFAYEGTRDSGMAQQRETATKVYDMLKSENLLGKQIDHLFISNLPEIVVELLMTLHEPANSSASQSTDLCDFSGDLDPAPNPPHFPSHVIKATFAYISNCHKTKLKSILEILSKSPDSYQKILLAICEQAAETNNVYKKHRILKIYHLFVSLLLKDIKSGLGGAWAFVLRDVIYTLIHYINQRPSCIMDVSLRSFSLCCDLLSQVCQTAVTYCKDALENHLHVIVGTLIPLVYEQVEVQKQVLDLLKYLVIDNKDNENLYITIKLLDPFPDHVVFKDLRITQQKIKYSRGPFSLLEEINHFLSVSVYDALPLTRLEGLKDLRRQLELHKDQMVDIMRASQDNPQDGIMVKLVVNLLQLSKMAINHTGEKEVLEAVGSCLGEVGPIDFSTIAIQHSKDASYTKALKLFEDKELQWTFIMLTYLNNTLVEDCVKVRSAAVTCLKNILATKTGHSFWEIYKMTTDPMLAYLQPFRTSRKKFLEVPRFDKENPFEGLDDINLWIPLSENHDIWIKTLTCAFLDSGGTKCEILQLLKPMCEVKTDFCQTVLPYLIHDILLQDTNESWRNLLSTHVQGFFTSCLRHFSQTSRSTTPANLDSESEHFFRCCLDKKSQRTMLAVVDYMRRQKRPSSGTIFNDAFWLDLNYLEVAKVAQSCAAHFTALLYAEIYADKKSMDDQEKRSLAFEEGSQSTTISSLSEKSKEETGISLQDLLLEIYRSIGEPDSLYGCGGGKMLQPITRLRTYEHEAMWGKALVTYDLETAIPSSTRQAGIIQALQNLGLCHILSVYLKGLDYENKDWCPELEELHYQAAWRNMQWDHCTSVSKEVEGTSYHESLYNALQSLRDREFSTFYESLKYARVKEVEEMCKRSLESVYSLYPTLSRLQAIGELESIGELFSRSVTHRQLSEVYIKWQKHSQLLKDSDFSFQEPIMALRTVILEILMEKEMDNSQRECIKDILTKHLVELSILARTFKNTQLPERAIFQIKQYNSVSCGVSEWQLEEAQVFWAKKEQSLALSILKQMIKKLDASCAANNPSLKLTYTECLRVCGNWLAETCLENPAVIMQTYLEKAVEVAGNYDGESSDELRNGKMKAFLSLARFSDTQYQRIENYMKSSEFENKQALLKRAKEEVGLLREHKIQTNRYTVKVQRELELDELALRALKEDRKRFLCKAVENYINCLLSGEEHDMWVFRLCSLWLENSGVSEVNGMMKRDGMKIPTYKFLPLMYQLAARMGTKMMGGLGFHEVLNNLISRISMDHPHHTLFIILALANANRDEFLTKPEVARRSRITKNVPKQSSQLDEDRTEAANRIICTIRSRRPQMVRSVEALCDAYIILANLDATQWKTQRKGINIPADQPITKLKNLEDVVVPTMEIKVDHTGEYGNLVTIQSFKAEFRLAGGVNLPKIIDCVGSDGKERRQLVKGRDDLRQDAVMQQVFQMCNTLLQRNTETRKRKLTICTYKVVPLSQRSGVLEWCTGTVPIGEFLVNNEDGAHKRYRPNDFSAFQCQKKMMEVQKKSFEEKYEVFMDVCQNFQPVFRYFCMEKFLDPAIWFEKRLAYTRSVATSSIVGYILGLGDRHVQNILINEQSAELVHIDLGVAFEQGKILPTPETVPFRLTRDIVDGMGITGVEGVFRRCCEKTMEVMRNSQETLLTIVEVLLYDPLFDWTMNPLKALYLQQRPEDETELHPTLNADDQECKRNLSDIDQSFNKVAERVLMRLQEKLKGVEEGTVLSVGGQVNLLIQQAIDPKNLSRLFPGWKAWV

In the case of `Cc1cccc(CNc2ccc3c(c2)Cc2ccnc(-c4cc(N5CCOCC5)cc(=O)[nH]4)c2O3)n1` [Example 2-41-2, 6-(7-(((6-Methylpyridin-2-yl)methyl)amino)-5H-chromeno[2,3-c]pyridin-1-yl)-4-morpholino pyridin-2 (1H)-one], the IC50 on ATM was below 100 nM. The SER2 (concentration at which the radiation sensitivity-enhancement ratio reaches 2) in experiment [1] (Homo sapiens, NCI-H460, 120 h) was in the range of 100 to 500 nM.
With `Cc1cnc(C(C)Nc2ccc3c(c2)Sc2cccc(-c4cc(N5CCOCC5)cc(=O)[nH]4)c2S3)cn1` (single isomer, unassigned) [Example 1-12-137-1, 6-(7-((1-(5-methylpyrazin-2-yl)ethyl)amino)thianthren-1-yl)-4-morpholinopyridin-2(1H)-one], the IC50 at ATM was below 100 nM. The SER2 (concentration at which the radiation sensitivity-enhancement ratio reaches 2) in experiment [1] (Homo sapiens, NCI-H460, 120 h) is below 100 nM.
Turning to `CC(Nc1ccc2c(c1)Cc1cccc(-c3cc(N4CCOCC4)cc(=O)[nH]3)c1O2)c1cc(Cl)ccn1` (single isomer, unassigned) [Example 2-14-89-2, 6-(7-((1-(4-chloropyridin-2-yl)ethyl)amino)-9H-xanthen-4-yl)-4-morpholinopyridin-2(1H)-one], the IC50 at ATM is below 100 nM. In addition, in experiment [1] (Homo sapiens, NCI-H460, 120 h), the SER2 (concentration at which the radiation sensitivity-enhancement ratio reaches 2) is below 100 nM.
As for `CC1CN(CCNc2ccc3c(c2)Sc2cccc(-c4cc(N5CCOCC5)cc(=O)[nH]4)c2S3)CCO1` (stereo not drawn) [Example 1-16-6, 6-(7-((2-(2-Methylmorpholino)ethyl)amino)thianthren-1-yl)-4-morpholinopyridin-2(1H)-one], the IC50 on ATM is below 100 nM. Also, the SER2 (concentration at which the radiation sensitivity-enhancement ratio reaches 2) in experiment [1] (Homo sapiens) fell in the range of 100 to 500 nM.
With `COC(=O)C(Nc1ccc2c(c1)Sc1cccc(-c3cc(N4CCOCC4)cc(=O)[nH]3)c1S2)c1cccc(C)n1` (stereo not drawn) [Example 1-12-107, Methyl 2-(6-methylpyridin 2-yl)-2-((6-(4-morpholino-6-oxo-1,6-dihydropyridin-2 yl)thianthren-2-yl)amino) acetate], on ATM, the IC50 is below 100 nM. Also, the SER2 (concentration at which the radiation sensitivity-enhancement ratio reaches 2) in experiment [1] (Homo sapiens, NCI-H460, 120 h) fell in the range of 100 to 500 nM.
As for `COc1cncc(CNc2ccc3c(c2)Sc2cccc(-c4cc(N5CCOCC5)cc(=O)[nH]4)c2S3)c1` [Example 1-44-1, 6-(7-(((5-methoxypyridin-3-yl)methyl)amino)thianthren-1-yl)-4-morpholinopyridin-2(1H)-one], the IC50 on ATM is below 100 nM. In addition, in experiment [1] (Homo sapiens, NCI-H460, 120 h), the SER2 (concentration at which the radiation sensitivity-enhancement ratio reaches 2) is 500 to 2000 nM.
On to `Cc1ccc(C(Nc2ccc3c(c2)Sc2cccc(-c4cc(N5CCOCC5)cc(=O)[nH]4)c2S3)C2CC(N(C)C)C2)nc1` (single isomer, unassigned) [Example 1-50-9, 6-(7-(((3-(Dimethylamino)cyclobutyl)(5-methylpyridin-2-yl)methyl)amino)thianthren-1-yl)-4-morpholino pyridin-2 (1H)-one], for which the IC50 at ATM was below 100 nM. The SER2 (concentration at which the radiation sensitivity-enhancement ratio reaches 2) in experiment [1] was below 100 nM.
On to `Cc1ccc(CNc2ccc3c(c2)Sc2cccc(-c4cc(N5CCOCC5)cc(=O)[nH]4)c2O3)nc1` [Example 4-8-13, 6-(8-(((5-Methylpyridin-2-yl)methyl)amino)phenoxathiin-4-yl)-4-morpholino pyridin-2(1H)-one], for which, on ATM, the IC50 was below 100 nM. Moreover, the SER2 (concentration at which the radiation sensitivity-enhancement ratio reaches 2) in experiment [1] (Homo sapiens, NCI-H460, 120 h) was in the range of 100 to 500 nM.
As for `CN1CCCC(Nc2ccc3c(c2)Sc2cccc(-c4cc(N5CCOCC5)cc(=O)[nH]4)c2S3)C1` (stereo not drawn) [Example 1-31-2, 6-(7-((1-Methylpiperidin-3-yl)amino)thianthren-1-yl)-4-morpholinopyridin-2(1H)-one], the IC50 at ATM is below 100 nM. Further, the SER2 (concentration at which the radiation sensitivity-enhancement ratio reaches 2) in experiment [1] (Homo sapiens, NCI-H460, 120 h) was 100 to 500 nM.
Consider `CN(C)c1ncc(CNc2ccc3c(c2)Cc2cccc(-c4cc(N5CCOCC5)cc(=O)[nH]4)c2O3)cn1` [Example 2-2-17, 6-(7-(((2-(Dimethylamino)pyrimidin-5-yl)methyl)amino)-9H-xanthen-4-yl)-4-morpholino pyridin-2(1H)-one], for which, on ATM, the IC50 was below 100 nM. The SER2 (concentration at which the radiation sensitivity-enhancement ratio reaches 2) in experiment [1] (Homo sapiens, NCI-H460, 120 h) is 500 to 2000 nM.
As for `CC(Nc1ccc2c(c1)Cc1cccc(-c3cc(N4CCOCC4)cc(=O)[nH]3)c1O2)c1nccc(C(F)F)n1` (stereo not drawn) [Example 2-14-62, 6-(7-((l-(4-(Difluoromethyl)pyrimidin-2-yl)ethyl)amino)-9H-xanthen-4-yl)-4-morpholino pyridin-2(1H)-one], the IC50 at ATM is below 100 nM. Moreover, the SER2 (concentration at which the radiation sensitivity-enhancement ratio reaches 2) in experiment [1] (Homo sapiens, NCI-H460, 120 h) lay in the range of 100 to 500 nM.
On to `CC(CN1C[C@@H](C)O[C@@H](C)C1)Nc1ccc2c(c1)Sc1cccc(-c3cc(N4CCOCC4)cc(=O)[nH]3)c1S2` (stereo partly drawn) [Example 1-13-12, 6-(7-((1-((2S,6R)-2,6- Dimethylmorpholino)propan-2-yl)amino)thianthren-1-yl)-4-morpholino pyridin-2(1H)-one], for which, at ATM, the IC50 is below 100 nM. In addition, in experiment [1] (Homo sapiens, NCI-H460, 120 h), the SER2 (concentration at which the radiation sensitivity-enhancement ratio reaches 2) was 100 to 500 nM.
With `CC(Nc1ccc2c(c1)Cc1cccc(-c3cc(N4CCOCC4)cc(=O)[nH]3)c1O2)c1cccc(F)n1` (single isomer, unassigned) [Example 2-14-87-1, 6-(7-((1-(6-fluoropyridin-2-yl)ethyl)amino)-9H-xanthen-4-yl)-4-morpholinopyridin-2(1H)-one], the IC50 at ATM was below 100 nM. The SER2 (concentration at which the radiation sensitivity-enhancement ratio reaches 2) in experiment [1] (Homo sapiens, NCI-H460, 120 h) fell in the range of 100 to 500 nM.
For the compound `COc1ncc(CNc2ccc3c(c2)Sc2cccc(-c4cc(N5CCOCC5)cc(=O)[nH]4)c2O3)cc1F` [Example 4-4-14, 6-(8-(((5-Fluoro-6-methoxypyridin-3-yl)methyl)amino)phenoxathiin-4-yl)-4-morpholino pyridin-2(1H)-one], the IC50 on ATM is below 100 nM. Besides, the SER2 (concentration at which the radiation sensitivity-enhancement ratio reaches 2) in experiment [1] (Homo sapiens, NCI-H460, 120 h) is 100 to 500 nM.
In the case of `Cc1cnc(C(CCN(C)C)Nc2ccc3c(c2)Sc2cccc(-c4cc(N5CCOCC5)cc(=O)[nH]4)c2S3)cn1` (single isomer, unassigned) [Example 1-22-12-2, 6-(7-((3-(dimethylamino)-1-(5-methylpyrazin-2-yl)propyl)amino)thianthren-1-yl)-4-morpholinopyridin-2(1H)-one], the IC50 on ATM is below 100 nM. Besides, in experiment [1], the SER2 (concentration at which the radiation sensitivity-enhancement ratio reaches 2) is below 100 nM.
In the case of `Cc1ccc(C(Nc2ccc3c(c2)Sc2cccc(-c4cc(N5CCOCC5)cc(=O)[nH]4)c2S3)[C@H]2CN(C(=O)CN(C)C)CCO2)nc1` (single isomer, unassigned) [Example 10-1], on ATM, the IC50 lay within 100 to 500 nM. Also, in experiment [1] (Homo sapiens, NCI-H460, 120 h), the SER2 (concentration at which the radiation sensitivity-enhancement ratio reaches 2) was below 100 nM.
Consider `COCCN1CCC(Nc2ccc3c(c2)Sc2cccc(-c4cc(N5CCOCC5)cc(=O)[nH]4)c2S3)CC1` [Example 1-26-1, 6-(7-((1-(2-methoxyethyl)piperidin-4-yl)amino)thianthren-1-yl)-4-morpholinopyridin-2(1H)-one], for which the IC50 at ATM was below 100 nM. Further, in experiment [1] (Homo sapiens, NCI-H460, 120 h), the SER2 (concentration at which the radiation sensitivity-enhancement ratio reaches 2) lay in the range of 100 to 500 nM.
For `Cc1ccnc(C(C)Nc2ccc3c(c2)Sc2cccc(-c4cc(N5CCOCC5)cc(=O)[nH]4)c2S3)n1` (single isomer, unassigned) [Example 1-12-144-1, 6-(7-((1-(4-methylpyrimidin-2-yl)ethyl)amino)thianthren-1-yl)-4-morpholinopyridin-2(1H)-one] the same measures were below 100 nM and below 100 nM.
As to `CC(CN1CCOCC1)Nc1ccc2c(c1)Sc1cccc(-c3cc(N4CCOCC4)cc(=O)[nH]3)c1S2` (racemic) [Example 1-13-2-1, 4-Morpholino-6-(7-((1-morpholinopropan-2-yl)amino)thianthren-1-yl)pyridin-2(1H)-one], on ATM, the IC50 is below 100 nM. The SER2 (concentration at which the radiation sensitivity-enhancement ratio reaches 2) in experiment [1] (Homo sapiens, NCI-H460, 120 h) lay within 100 to 500 nM.
For `Cc1ccnc(C(CF)Nc2ccc3c(c2)Sc2cccc(-c4cc(N5CCOCC5)cc(=O)[nH]4)c2S3)n1` (stereo not drawn) [Example 1-12-89, 6-(7-((2-Fluoro-1-(4-methylpyrimidin-2-yl)ethyl)amino)thianthren-1-yl)-4-morpholino pyridin-2(1H)-one] the same measures were below 100 nM and 100 to 500 nM.
For `C=C(C)c1cncc(CNc2ccc3c(c2)Cc2cccc(-c4cc(N5CCOCC5)cc(=O)[nH]4)c2O3)c1` [Example 2-14-10, 4-Morpholino-6-(7-(((5-(prop-1-en-2-yl)pyridin-3-yl)methyl)amino)-9H-xanthen-4-yl)pyridin-2 (1H)-one], in that order: below 100 nM and 100 to 500 nM.
In the case of `Nc1ccc2c(c1)Sc1cccc(-c3cc(N4CCOCC4)cc(=O)[nH]3)c1S2` [Example 1-1, 6-(7-aminothianthren-1-yl)-4-morpholinopyridin-2(1H)-one], on ATM, the IC50 was below 100 nM. In addition, the SER2 (concentration at which the radiation sensitivity-enhancement ratio reaches 2) in experiment [1] (Homo sapiens, NCI-H460, 120 h) fell in the range of 500 to 2000 nM.
Consider `N#Cc1ccnc(CNc2ccc3c(c2)Sc2cccc(-c4cc(N5CCOCC5)cc(=O)[nH]4)c2S3)c1` [Example 1-12-28, 2-(((6-(4-Morpholino-6-oxo-1,6-dihydro-pyridin-2-yl)thianthren-2-yl)amino)methyl) isonicotinonitrile], for which the IC50 at ATM was below 100 nM. The SER2 (concentration at which the radiation sensitivity-enhancement ratio reaches 2) in experiment [1] (Homo sapiens, NCI-H460, 120 h) fell in the range of 100 to 500 nM.
Take `CCN(C)c1cncc(CNc2ccc3c(c2)Cc2cccc(-c4cc(N5CCOCC5)cc(=O)[nH]4)c2O3)c1` [Example 2-21-9, 6-(7-(((5-(Ethyl(methyl)amino)pyridin-3-yl)methyl)amino)-9H-xanthen-4-yl)-4-morpholino pyridin-2(1H)-one]: at ATM, the IC50 is below 100 nM. Moreover, in experiment [1] (Homo sapiens, NCI-H460, 120 h), the SER2 (concentration at which the radiation sensitivity-enhancement ratio reaches 2) was 500 to 2000 nM.
